Source: patent US12049519B2, “Peptide for the delivery of anionic materials” (The Queen's University of Belfast, priority 2019, dated 2024)
Residues, ends and D or L forms follow the SMILES beside them.

Legend:
[1] = tested on: MCF-7 breast cancer cells; test: Endosomal escape study: transfection with and without chloroquine; type: cell-based; settings: N:P 10, with and without 10 μM chloroquine, cell line not given
Description: (§1) FIG. 6: Transfection efficiency of nanoparticles comprising pEGFP-N1 and Peptides 7 to 12 assessed in A) MCF-7 and B) MDA-MB-231 breast cancer cells with and without chloroquine, a reagent known to facilitate endosomal escape. Cells were transfected for 4 h with peptide/pEGFP-N1 nanoparticles at N:P 10. 10 μM chloroquine was added to cells in appropriate wells along with the nanoparticles. Following transfection, medium was replaced with DMEM supplemented with 10% FCS and incubated for 48 h before quantification of transfection efficiency by flow cytometry at 4% gating. […] Statistical analysis was carried out using an unpaired t test (*=P<0.05, ** =P<0.01, ***=P<0.001)
(§2) In some instances, cells were treated with chloroquine (a reagent known to facilitate endosomal escape) (FIG. 6). For endosomal escape studies, 1 mM chloroquine (Sigma-Aldrich, UK) was added to the cells immediately before transfection, giving a final concentration of 10 μM chloroquine in the nanoparticle transfection mix.

[2] = tested on: MDA-MB-231 breast cancer cells; test: as above; type: cell-based; settings: N:P 10, with and without 10 μM chloroquine, cell line not given
Description: as §1, §2

[3] = Nanoparticle hydrodynamic size, Malvern Zetasizer (DLS); type: physicochemical; settings: low N:P ratios
Description: FIG. 3: Mean hydrodynamic size and zeta potential of nanoparticles prepared with pEGFP-N1 and A) Peptide 7, B) Peptide 8, C) Peptide 9, D) Peptide 10, E) Peptide 11 or F) Peptide 12 at a range of N:P ratios. For example, at an N:P ratio of 10 with Peptide 7, nanoparticles comprise 0.5 μg of pEGFP-N1 and 5.7 μg Peptide 7. Nanoparticles were made up to 50 μl with molecular grade water and incubated for 30 min at room temperature before hydrodynamic size and zeta potential were measured using a Malvern Zetasizer Nano ZS instrument.
Peptide complexes (an N:P ratio of 0) and composite complexes were prepared at a range of N:P ratios from 1 to 20 to complex 0.5 μg pEGFP-N1. For example, at an N:P ratio of 10 with Peptide 7, nanoparticles comprise 0.5 μg of pEGFP-N1 and 5.7 μg Peptide 7. Nanoparticles were made up to 50 μl with molecular grade water and incubated for 30 min at room temperature before a Malvern Zetasizer Nano ZS instrument with DTS software (Malvern Instruments, UK) was used to measure the mean hydrodynamic particle size of nanoparticles. A 40 μl disposable microcuvette was used to measure the mean size by number of nanoparticles formed by Dynamic Light Scattering (DLS) at 20° C. Results were reported as mean±SEM, and all measurements were performed in triplicate.

[4] = Cell viability, MTS assay (FIGS. 11 and 12B); type: cell-based; settings: N:P ratio of 6 to 15; 24 h post transfection; relative to untreated cells
Description: (§3) FIG. 11: Cell viability of A) MCF-7 and MDA-MB-231 breast cancer cells, B) DU145 and PC-3 prostate cancer cells, and C) NCTC-929 fibroblast, HMEC-1 endothelial, and HaCaT keratinocyte cells following transfection with Peptide 10. Cells were transfected with Peptide 10 at a range of N:P ratios for 4 h before replacement with complete medium. After 24 h, cells were treated with MTS reagent for 2 h in dark conditions. A Bio-Tek Powerwave XS plate reader was then used to read absorbance at 490 nm with Gen5 software and any background absorbance was subtracted from readings. Untreated cells were considered to be 100% viable and viability under all conditions was calculated relative to this.
FIG. 12: Transfection efficiency and cell viability of nanoparticles comprising pEGFP-N1 and Peptide 10 assessed in ARPE human retinal cells. (A) Cells were transfected for 4 h with Peptide 10/pEGFP-N1 nanoparticles at a range of N:P ratios. Following transfection, medium was replaced with culture medium supplemented with 10% serum and incubated for 48 h before imaging using i) light and ii) fluorescence microscopy. Scale bar=400 μm. iii) Quantification of transfection efficiency was subsequently analysed by flow cytometry at 4% gating. […] A Bio-Tek Powerwave XS plate reader was then used to read absorbance at 490 nm with Gen5 software and any background absorbance was subtracted from readings. […]

HMEC-1 endothelial cells = test: Cell viability, MTS assay; type: cell-based; settings: irrespective of the N:P ratio
Description: as §3
(§4) Cell viability was evaluated by MTS assay with CellTiter 96 AQueous One Solution Cell Proliferation Assay (Promega, UK). MDA-MB-231 and PC-3 cells were seeded at a density of 1.5×10^4 cells per well and MCF-7, and DU145cells seeded at 1.2×10^4 cells per well, ARPE, NCTC-929, HMEC-1, and HaCaT cells seeded at 1.0×10^4, and allowed to adhere in a 96 well plate. Cells were transfected CellTiter reagent was added to each well 24 h post transfection to give a final volume of 10% and returned to the incubator for 2 h. Absorbance was read at 490 nm using a Bio-Tek Powerwave XS plate reader with Gen5 software and any background absorbance was subtracted from readings. Cell viability was expressed as a percentage of the untreated control where the untreated control is considered to be 100% viable.

[5] = tested on: breast and prostate cancer cell lines; test: Cell viability, MTS assay; type: cell-based; settings: even at a high N:P ratio of 20
Description: as §3, §4

HaCaT keratinocyte cells = test: Cell viability, MTS assay; type: cell-based; settings: N:P ratios of 15 and 20
Description: as §3, §4

[6] = tested on: NCTC-929 fibroblast cells; test: Cell viability, MTS assay; type: cell-based; settings: N:P ratios of 15 and 20
Description: as §3, §4

pEGFP-N1 = test: DNA complexation efficiency assay, Quant-iT PicoGreen; type: binding
Description: FIG. 2: DNA complexation efficiency assay using Quant-iT™ PicoGreen® reagent indicating the efficiency of A) Peptide 7, B) Peptide 8, C) Peptide 9, D) Peptide 10, E) Peptide 11 and F) Peptide 12 to complex 0.5 μg pEGFP-N1 (Accession Number: U55762.1) (a pDNA) at a range of N:P ratios. Peptide/pEGFP-N1 complexes were prepared at a range of N:P ratios from 1 to 20. 50 μl samples of each N:P ratio was pipetted into a 96-well plate with Quant-iT™ PicoGreen® reagent. Sample fluorescence was then analysed by excitation at 480 nm and the fluorescence emission intensity measured at 520 nm using a Synergy 2 Multi-Mode Microplate Reader. Fluorescence was then calculated as a percentage of the control and converted to the percentage DNA complexed.
Peptide complexes and composite complexes were prepared at a range of N:P ratios from 1 to 20 to complex 0.5 μg pEGFP-N1. Quant-iT™ PicoGreen® Reagent (Life Technologies, UK) was diluted 1:200 in TAE buffer and 50 μl was added to each 50 μl sample. Sample fluorescence was analysed by excitation at 480 nm and the fluorescence emission intensity measured at 520 nm using a Synergy 2 Multi-Mode Plate Reader. Fluorescence intensity of a naked pDNA control (an N:P ratio of 0) was taken as 100% fluorescence and 0% complexed, and any fluorescence detected from samples was taken to be un-complexed. […]

[7] = tested on: MCF-7 breast cancer cells; test: Transfection with peptide/pEGFP-N1 nanoparticles, flow cytometry; type: cell-based; settings: N:P ratios of 6 to 10
Description: (§5) FIG. 5: Transfection efficiency of nanoparticles comprising pEGFP-N1 and A) Peptide 7, B) Peptide 8, C) Peptide 9, D) Peptide 10, E) Peptide 11 and F) Peptide 12 assessed in MCF-7 and
(§6) MDA-MB-231 breast cancer cells. Cells were transfected for 4 h with peptide/pEGFP-N1 nanoparticles at a range of N:P ratios. Following transfection, medium was replaced with DMEM supplemented with 10% FCS and incubated for 48 h before quantification of transfection efficiency by flow cytometry at 4% gating.
(§7) In order to assess the ability of peptide and composite nanoparticles to transfect cells, transfections were carried out in 96-well tissue culture plates.
(§8) MCF-7 and MDA-MB-231 breast cancer cells were seeded at a density of 2.25×10^4 and 2.5×10^4 cells per well respectively, and allowed to adhere overnight at 37° C. with 5% CO2 (FIG. 5).
(§9) Medium was replaced with OptiMEM (Invitrogen, UK) 2 h prior to transfection and the cells returned to the incubator at 37° C. with 5% CO2. […]
(§10) Transfected cells were washed with phosphate buffered saline (PBS) and 2× trypsin used to detach cells at 37° C. in 5% CO2 atmosphere. […] A FACScalibur system (BD Bioscience, UK) or Accuri C6 Plus (BD Bioscience, UK) were used for the detection of green fluorescent protein (GFP) expressing cells at 4% gating (to reduce interference of auto-fluorescence) and results are reported as mean±SEM, n=3.

[8] = tested on: MDA-MB-231 breast cancer cells; test: as above; type: cell-based; settings: N:P ratios of 6 to 10
Description: as §5, §6, §7, §8, §9, §10

| Compound | transfection regardless of chloroquine [1] | transfection regardless of chloroquine [2] | particle size as a function of N:P ratio [3] | viability at 24 h [4] [%] | cytotoxic effects (cell viability studies) (HMEC-1 endothelial cells) | toxicity (cell viability studies) [5] | toxicity (cell viability studies) (HaCaT keratinocyte cells) | toxicity (cell viability studies) [6] | maximum complexation efficiency (pEGFP-N1) [%] | % transfection [7] [%] | % transfection [8] [%] |
| --- | --- | --- | --- | --- | --- | --- | --- | --- | --- | --- | --- |
| CRRRRWRRRRC [Peptide 11, comparative linear peptide, outside the scope of the invention] | Very low | Very low | large particles form at lower N:P ratios |  |  |  |  |  |  |  |  |
| N=C(N)NCCC[C@H](NC(=O)[C@H](CCCNC(=N)N)NC(=O)[C@H](CCCNC(=N)N)NC(=O)[C@H](Cc1c[nH]c2ccccc12)NC(=O)[C@H](CCCNC(=N)N)NC(=O)[C@H](CCCNC(=N)N)NC(=O)[C@H](CCCNC(=N)N)NC(=O)[C@H](Cc1c[nH]cn1)NC(=O)[C@H](Cc1c[nH]cn1)NC(=O)[C@H](Cc1c[nH]cn1)NC(=O)[C@@H](N)CS)C(=O)N[C@@H](Cc1c[nH]cn1)C(=O)N[C@@H](Cc1c[nH]cn1)C(=O)N[C@@H](Cc1c[nH]cn1)C(=O)N[C@@H](CS)C(=O)O [Peptide 10, CHHHRRRWRRRHHHC] (H-CHHHRRRWRRRHHHC-OH) |  |  |  | > 60 | no cytotoxic effects | weak toxicity, if any | weak toxicity | weak toxicity |  |  |  |
| CEHHRRRWRRRHHEC [Peptide 12, comparative linear peptide, outside the scope of the invention] | Very low | Very low |  |  |  |  |  |  | 70 | > 10 | > 10 |
